Experimental data: patent US6420137B1 (American Home Products Corporation, priority 1998, dated 2002)
Where a name gives a salt, the structure may show the parent alone.

Legend:
HNT2RS [1] = assay: Competition of [3H]neurotensin binding, membranes from GH4C1 cells stably expressing HNT2RS; design: species or system human; conditions: HNT2RS (short form), FIG. 1B
Protocol: (§2) A: Binding to membranes from GH4C1 cells stably expressing HNT2RL. B: Binding to membranes from GH4C1 cells stably expressing HNT2RS.
The adherent cells were removed from the plates with PBS and 2 mM EDTA, pelleted by centrifugation at 1,500×g for 10 minutes at 4° C., and resuspended in ice cold homogenization buffer (1 mM sodium bicarbonate, 1 mM EDTA, 1 mM EGTA, pH 7.2) containing 1×protease inhibitors (5 μg/ml leupeptin, 5 μug/ml aprotinin, 100 μg/ml bacitracin, and 100 μg/ml benzamidine). After 10 minutes on ice, the cells were lysed by dounce homogenizing for 20 strokes in a glass/glass homogenizer. The cell lysate was centrifuged at 1,500×g for 10 minutes at 4° C. to remove the nuclei and cell debris and the supernatant containing the cell membranes were harvested by centrifugation at 20,000×g for 30 minutes at 4° C. The membrane pellet was resuspended in 1×homogenization buffer containing 1×protease inhibitors and once again pelleted. The membrane pellet was then resuspended at 1-5 mg/ml in 25 mM Tris, pH 7.4 and either directly used in binding assays or frozen (−80° C.) in small aliquots for future use.
Radioligand binding assays: competition binding. All radioligand binding assays were performed in 96-well microtiter plates using 1×binding buffer (50 mM HEPES, pH 7.4, 10 mM MgCl2, 0.2% BSA, pH 7.4) containing protease inhibitors (5 μg/ml leupeptin, 5 μmg/ml aprotinin, 100 μg/ml bacitracin, and 100 μg/ml benzamidine). […] Binding reactions were initiated by adding 5-100 μg of membrane protein in a 170 μl volume. Final reaction volume was 200 μl/well.
The microtiter plate was placed on a rotary shaker at 200 rpm and incubated at room temperature for 2 hours. Free radioligand was separated from bound ligand by rapid filtration through a glass fiber (GF/C) filter plate pretreated with 0.3% polyethyleneimine for 30 minutes) using a Packard cell harvester. […] After the filter plates were dried in a 37° C. incubator for 2 hours, 25 μl Microscint scintillation fluid (Packard) was added to each well and the plate was counted in a Packard Top Count scintillation counter.

HNT2RS [2] = assay: GTP sensitivity of [3H]NT binding, CHO-K1 membranes stably expressing HNT2RS; design: species or system human
Protocol: GTP sensitivity. These radioligand binding assays were performed in 96-well microtiter plates using 1×binding buffer (50 mM HEPES, pH 7.4, 10 mM MgCl2, 0.4% BSA, pH 7.4) containing protease inhibitors (5 μg/ml leupeptin, 5 μg/ml aprotinin, 100 μg/ml bacitracin, and 100 μg/ml benzamidine). […] Wells A1-6 were repeated for each membrane preparation to be tested for GTP sensitivity. Binding reactions were initiated by adding 5-100 μg of membrane protein in a 170 μl volume. Final reaction volume was 200 μl/well. The microtiter plate was placed on a rotary shaker at 200 rpm and incubated at room temperature for 2 hours. Free radioligand was separated from bound ligand by rapid filtration through a glass fiber (GF/C) filter plate pretreated with 0.3% polyethyleneimine using a Packard cell harvester. The filter plates were then washed several times with cold (4° C.) binding buffer lacking BSA. After the filter plates were dried in a 37° C. incubator for 2 hours, 25 μl Microscint scintillation fluid (Packard) was added to each well and the plate was counted in a Packard Top Count scintillation counter.

HNT2R = target: T1, HNT2R (Homo sapiens, UniProt O95665); assay: GTP sensitivity of [3H]NT binding, CHO-K1 membranes stably expressing HNT2R
T1 construct: The HindIII and XbaI digested full-length receptor cDNAs were inserted into the pRC/CMV (Invitrogen) vector; expressed in transfected cells; host or cells: GH4C1 (rat pituitary) membranes for A6 and A8; CHO-K1 membranes for A9; SK-N-MC whole cells for A11

fasted ob/ob males = assay: Effect of AcNT(8-13) on appetite / food consumption in mouse models of obesity; assay type: in vivo
Text: (§1) Obesity is associated with decreased metabolic energy expenditure and increased metabolic efficiency. Increasing metabolic energy expenditure (thermogenesis) is a desirable characteristic of anti-obesity targets.

[3] = tested on: neurotensin receptor subtypes NT1R, NT2R, NT3R; conditions: cited from earlier work
[4] = Acute metabolic responses to AcNT(8-13): lipolysis, oxygen consumption; assay type: in vivo; conditions: administered acutely
Text: as §1

HNT2RL = target: T2, HNT2RL (Homo sapiens, UniProt O95665); assay: Competition of [3H]neurotensin binding, membranes from GH4C1 cells stably expressing HNT2RL; conditions: HNT2RL (long form), FIG. 1A
T2 construct: The HindIII and XbaI digested full-length receptor cDNAs were inserted into the pRC/CMV (Invitrogen) vector; expressed in transfected cells; host or cells: GH4C1 (rat pituitary) membranes for A6 and A8; CHO-K1 membranes for A9; SK-N-MC whole cells for A11
Protocol: as §2
The adherent cells were removed from the plates with PBS and 2 mM EDTA, pelleted by centrifugation at 1,500×g for 10 minutes at 4° C., and resuspended in ice cold homogenization buffer (1 mM sodium bicarbonate, 1 mM EDTA, 1 mM EGTA, pH 7.2) containing 1×protease inhibitors (5 μg/ml leupeptin, 5 μug/ml aprotinin, 100 μg/ml bacitracin, and 100 μg/ml benzamidine). After 10 minutes on ice, the cells were lysed by dounce homogenizing for 20 strokes in a glass/glass homogenizer. The cell lysate was centrifuged at 1,500×g for 10 minutes at 4° C. to remove the nuclei and cell debris and the supernatant containing the cell membranes were harvested by centrifugation at 20,000×g for 30 minutes at 4° C. The membrane pellet was resuspended in 1×homogenization buffer containing 1×protease inhibitors and once again pelleted. […]
The microtiter plate was placed on a rotary shaker at 200 rpm and incubated at room temperature for 2 hours. […] After the filter plates were dried in a 37° C. incubator for 2 hours, 25 μl Microscint scintillation fluid (Packard) was added to each well and the plate was counted in a Packard Top Count scintillation counter.

H1-histamine receptors = H1-histamine receptors (Homo sapiens, UniProt P35367); conditions: cited from earlier work
Chain of H1-histamine receptors (P35367 whole entry): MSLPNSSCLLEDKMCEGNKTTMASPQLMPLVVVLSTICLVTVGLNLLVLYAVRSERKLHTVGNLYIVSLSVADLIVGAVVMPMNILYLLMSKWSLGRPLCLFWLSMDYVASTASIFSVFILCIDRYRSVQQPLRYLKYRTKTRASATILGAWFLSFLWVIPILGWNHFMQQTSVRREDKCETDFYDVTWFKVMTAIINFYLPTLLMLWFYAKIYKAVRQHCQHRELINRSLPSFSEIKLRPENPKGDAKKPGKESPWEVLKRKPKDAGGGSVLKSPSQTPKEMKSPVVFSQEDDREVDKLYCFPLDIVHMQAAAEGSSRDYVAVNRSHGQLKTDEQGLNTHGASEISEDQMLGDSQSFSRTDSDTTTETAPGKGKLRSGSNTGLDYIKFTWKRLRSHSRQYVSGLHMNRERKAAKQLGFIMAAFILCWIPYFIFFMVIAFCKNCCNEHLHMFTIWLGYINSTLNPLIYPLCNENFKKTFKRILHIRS

T2 sequence (O95665 whole entry): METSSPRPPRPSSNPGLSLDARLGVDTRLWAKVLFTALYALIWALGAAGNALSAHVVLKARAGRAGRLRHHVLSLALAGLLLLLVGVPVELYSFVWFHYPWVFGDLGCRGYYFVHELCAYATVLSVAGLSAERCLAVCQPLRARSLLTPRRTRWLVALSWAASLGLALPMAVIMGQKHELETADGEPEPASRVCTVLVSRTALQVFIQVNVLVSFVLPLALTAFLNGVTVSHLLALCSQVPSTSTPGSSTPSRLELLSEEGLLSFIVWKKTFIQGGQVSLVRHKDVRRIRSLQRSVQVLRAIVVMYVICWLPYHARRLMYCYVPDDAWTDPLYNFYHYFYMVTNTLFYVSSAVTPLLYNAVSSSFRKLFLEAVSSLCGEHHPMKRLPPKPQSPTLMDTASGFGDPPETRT
T1 sequence (O95665 whole entry): as above

With “NT(9-13): neurotensin (9-13) fragment, a neurotensin receptor binding partner” the “competition of [3H]neurotensin binding” value (HNT2RS [1]) was “bound with lower affinity”.
In the case of `Nc1nc2c(ncn2[C@@H]2O[C@H](COP(=O)(O)OP(=O)(O)OP(O)(O)=S)[C@@H](O)[C@H]2O)c(=O)[nH]1` [GTPγS], the “% Decrease in [3H]NT Bound in Presence of 100 μM GTPγS” value (HNT2RS [2]) was 35.3% and the “% Decrease in [3H]NT Bound in Presence of 100 μM GTPγS” value (HNT2R) was 51.5%.
In the case of `C[C@@H]1CN([C@H]2CC[C@](C#N)(c3ccc(F)cc3)CC2)CC[C@]1(C(=O)O)c1ccccc1` [levocabastine, (−)-{3S-[1(cis)-3α4β]}-1-{4-cyano-4-(4-fluoro-phenyl)-cyclohexyl)}-3-methyl-4-phenyl-4-piperidene-carboxylic acid monohydrochloride], the “reversal of the suppression of food intake mediated by AcNT(8-13)” value (fasted ob/ob males; animals pretreated with antagonist, 50 μg/kg AcNT(8-13)) is given as “completely reversed”, the “binding to the NT2R subtype” value [3] is given as “high affinity” and the “selectivity for the NT2R over the NT1R and NT3R subtypes” value [3] is given as 1000 fold.
For “[^3H]NT: tritiated neurotensin radioligand (New England Nuclear, 100 Ci/mmol)”, the “Specific [3H]NT Bound in Presence of 100 μM GTPγS” value (HNT2RS [2]) was 451 cpm and the “Specific [3H]NT Bound” value (HNT2RS [2]; no GTPγS) was 697 cpm.
With “AcNT(8-13): N-acetylated form of the carboxyl terminal 6 amino acids of neurotensin (8-13)” the “competition of [3H]neurotensin binding” value (HNT2RS [1]) was “equally well”, the food consumption (fasted ob/ob males; AcNT(8-13) i.p., fasted ob/ob males) was “biphasic suppression of food consumption” and the “suppression of food consumption” value (fasted ob/ob males; administered acutely) was 40-60%. For the same compound, the “binding affinity compared with the 13 amino acid form of neurotensin” value [3] was “identical”, the “lipolytic effects (NEFAs and glycerol)” value [4] was “elevated NEFAs and glycerol” and the oxygen consumption [4] was “increased”.
For `COc1cccc(OC)c1-c1cc(C(=O)NC2(C(=O)O)C3CC4CC(C3)CC2C4)nn1-c1ccnc2cc(Cl)ccc12` (centres unmarked) [SR48692], the “competition of [3H]neurotensin binding” value (HNT2RL) was “competed at a concentration about two orders of magnitude higher” and the “competition of [3H]neurotensin binding” value (HNT2RS [1]) was “competed at a concentration about two orders of magnitude higher”.
For `c1ccncc1` [Pyridine, pyridine], the “binding to H1-histamine receptors” value (H1-histamine receptors) is listed as “high affinity binding”, the “block of AcNT(8-13)-mediated appetite suppression” value (fasted ob/ob males; antihistamine at 1 mg/kg) is listed as “did not block” and the “binding to NTR subtypes” value [3] is listed as “not to any NTR subtypes”.
For `COc1cccc(OC)c1-c1cc(C(=O)NC2(C(=O)O)C3CC4CC(C3)CC2C4)nn1-c1ccc(C(=O)N(C)CCCN(C)C)cc1C(C)C.Cl` (centres unmarked) [SR142948], the “affinity for the NT1R and NT2R subtypes” value [3] is listed as “comparable affinity”.
